Here are results for two compounds from PubChem BioAssay (NCI).

Molecules are shown by their SMILES.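 Compound exposure: 48 hours, 5 concentrations, 96-well plates. At the GI50, growth is halved. TGI denotes the concentration required for complete inhibition of growth.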 Where only a bound is given, the exact number is not on record here.

Test systems include COLO 205 colon; SNB-19 CNS; NCI/ADR-RES ovarian; SR leukemia; CAKI-1 renal; EKVX NSCLC; SK-MEL-2 melanoma; HCC-2998 colon; SW-620 colon; M14 melanoma.
Common to all, as to assay: growth of human tumour cells (NCI), 48 h

`COc1cccc2c1c(C(=O)C(=O)Nc1cc(C)no1)cn2Cc1ccc(F)cc1`: the GI50 with COLO 205 colon is 13.8 µM; with SNB-19 CNS, 10.1 µM; in the assay on NCI/ADR-RES ovarian it was 3.78 µM; with SR leukemia, 0.573 µM; with CAKI-1 renal, 5.92 µM; in the assay with EKVX NSCLC it was 32.6 µM. Moreover, the GI50 in the assay on SK-MEL-2 melanoma was 8.48 µM; with HCC-2998 colon it was 37 µM; in the assay with SW-620 colon it was 3.68 µM; in the assay with M14 melanoma, 5.42 µM. Besides, the TGI in the assay on COLO 205 colon is 53 µM; in the assay with SNB-19 CNS, greater than 100 µM; with NCI/ADR-RES ovarian it was greater than 24 µM; in the assay with SR leukemia it was greater than 100 µM; in the assay with CAKI-1 renal it was greater than 45.4 µM; in the assay with EKVX NSCLC it was greater than 100 µM. The TGI in the assay with SK-MEL-2 melanoma is greater than 87.3 µM; in the assay on HCC-2998 colon, greater than 100 µM; in the assay on SW-620 colon, greater than 100 µM; in the assay on M14 melanoma it was greater than 79.9 µM.

On to `CCCC(=O)OC1C(C(O)CO)OC2OC(C)(C)OC21` (stereo not given), for which the TGI in the assay with COLO 205 colon, with SNB-19 CNS, in the assay on NCI/ADR-RES ovarian, with SR leukemia, in the assay with CAKI-1 renal and with EKVX NSCLC was greater than 100 µM each time. Further, the TGI with SK-MEL-2 melanoma, in the assay on HCC-2998 colon, in the assay on SW-620 colon and in the assay on M14 melanoma was greater than 100 µM throughout.
